From publication PMC8697972, “New Auranofin Analogs with Antibacterial Properties against Burkholderia Clinical Isolates” (Antibiotics, 2021)
≈ marks a conversion by molar mass, not a printed value. Like-named read-outs stand apart in the source and are kept apart here.

System: B. cenocepacia K56-2
Test: Multistep resistance by serial passaging at 0.5× MIC
Assay type: cell-based, Burkholderia cenocepacia
Conditions: for MIC: Burkholderia cenocepacia; for change of MIC on serial passaging: 24 days of passaging at 0.5× MIC
[1] = K562, 0 h, day 0 of serial passaging, read-out: starting MIC in multistep resistance assay
[2] = K562, after 12–16 days of passaging at 0.5× MIC, read-out: MIC reached on serial passaging

SMILES	MIC [1] [µg/mL]	MIC [2] [µg/mL]	change of MIC on serial passaging
C[C@@H](O)[C@H]1C(=O)N2C(C(=O)O)=C(S[C@@H]3CN[C@H](C(=O)N(C)C)C3)[C@H](C)[C@H]12 [MEM, meropenem, reference compound]	16 (≈ 41.7 µM)	256 (≈ 668 µM)	
C[PH](C)(C)[Au][S]CCO [MS-40, 2-mercaptoethanolatotrimethylphosphine gold(I)]			no apparent increase
CC(O)C[S][Au-][P+](C)(C)C (stereo not drawn) [MS-40S]			no apparent increase
C[C@H]1c2cccc(O)c2C(=O)C2=C(O)[C@]3(O)C(=O)C(C(N)=O)=C(O)[C@@H](N(C)C)[C@@H]3[C@@H](O)[C@@H]21 [DOX, doxycycline, reference compound]	4 (≈ 9 µM)	256 (≈ 576 µM)	
